System: NOX activity
Experiment: Amplex Red measurement of extracellular hydrogen peroxide (NOX activity) using DMSO-differentiated HL60 cells
Format: cell-based, human
Details: Amplex red, DMSO-differentiated HL60 cells; compound concentration not stated
Method: Human acute myeloid leukemia cell line HL-60 was cultured in RPMI 1640 (Invitrogen) supplemented with 10% heat-inactivated calf serum, 2 mM glutamine, 100 U/mL penicillin (Sigma), and 100 μg streptomycin (Sigma) at 37° C. under a humidified atmosphere of 5% CO2. HL60 differentiation to the neutrophil phenotype was triggered by adding Me2SO (final concentration 1.25% v/v for 6 days) to the culture medium.
Extracellular hydrogen peroxide was measured using Amplex UltraRed (Molecular Probes). Cells were trypsinized (1× Trypsin-EDTA), collected by centrifugation, and resuspended in HBSS supplemented with 1% glucose. Cells were seeded into black 96-well plates at a density of 50′000 cells in 200 μl testing buffer (HBSS 1% glucose containing 0.005 U/mL horseradish peroxidase (Roche) and 50 μM Amplex Red in the presence or absence of compounds according to the invention. As a control, DPI was included at a final concentration of 10 μM The plates were placed in the fluorescent Optima Fluorescent plate reader and kept at 37° C. during 20 min Fluorescence was measured for […] with excitation and emission wavelengths of 544 nm and 590 nm respectively. NOX activities were expressed as % of the activity in control cells. Residual activity of DPI-treated cells was usually <10%.
The Table 2 below summarizes the percentage of inhibition of NOX activity as measured by Amplex red using DMSO-differentiated HL60 cells as described above: […]

With `O=c1c2c(CN3CCOCC3)n(Cc3ccccc3)c(=O)cc2[nH]n1-c1ccccc1Cl` [Compound 1, 5-benzyl-2-(2-chlorophenyl)-4-(morpholin-4-ylmethyl)-1H-pyrazolo[4,3-c]pyridine-3,6(2H,5H)-dione] as the compound, how does the “Inhibition (%) of NOX activity” value read?
Its value is 80%.

`CCCCc1c2c(=O)n(C)[nH]c2cc(=O)n1Cc1ccccn1` [Compound 3, 4-butyl-2-methyl-5-(pyridin-2-ylmethyl)-1H-pyrazolo[4,3-c]pyridine-3,6(2H,5H)-dione] was tested. Which “Inhibition (%) of NOX activity” value did it give?
Its value is 84%.

With `CCCCc1c2c(=O)n(-c3ccc(OCc4ccccc4)cc3)[nH]c2cc(=O)n1Cc1ccc(Cl)cc1` [Compound 4, 2-[4-(benzyloxy)phenyl]-4-butyl-5-(4-chlorobenzyl)-1H-pyrazolo[4,3-c]pyridine-3,6(2H,5H)-dione] as the compound, how does the “Inhibition (%) of NOX activity” value read?
The value was 69%.

With `CCCCc1c2c(=O)n(-c3ccc(OCc4ccccc4)cc3)[nH]c2cc(=O)n1C` [Compound 5, 2-[4-(benzyloxy)phenyl]-4-butyl-5-methyl-1H-pyrazolo[4,3-c]pyridine-3,6(2H,5H)-dione] as the compound, how does the “Inhibition (%) of NOX activity” value read?
The value was 94%.

`CCCCc1c2c(=O)n(-c3ccc(F)cc3Cl)[nH]c2cc(=O)n1Cc1ccco1` [Compound 7, 4-butyl-2-(2-chloro-4-fluorophenyl)-5-(furan-2-ylmethyl)-1H-pyrazolo[4,3-c]pyridine-3,6(2H,5H)-dione] was tested. Which “Inhibition (%) of NOX activity” value did it give?
Its value is 91%.

`CCCCc1c2c(=O)n(-c3ccc(F)cc3Cl)[nH]c2cc(=O)n1CCOC` [Compound 9, 4-butyl-2-(2-chloro-4-fluorophenyl)-5-(2-methoxyethyl)-1H-pyrazolo[4,3-c]pyridine-3,6(2H,5H)-dione] was tested. Which “Inhibition (%) of NOX activity” value did it give?
Its value is 76%.

`CCCCc1c2c(=O)n(-c3ccc(F)cc3Cl)[nH]c2cc(=O)n1CCc1ccccn1` [Compound 10, 4-butyl-2-(2-chloro-4-fluorophenyl)-5-(2-pyridin-2-ylethyl)-1H-pyrazolo[4,3-c]pyridine-3,6(2H,5H)-dione] was tested. Which “Inhibition (%) of NOX activity” value did it give?
Its value is 78%.

`COCCCn1c(CN(C)Cc2ccccc2)c2c(=O)n(-c3ccc(F)cc3Cl)[nH]c2cc1=O` [Compound 12, 4-{[benzyl(methyl)amino]methyl}-2-(2-chloro-4-fluorophenyl)-5-(3-methoxypropyl)-1H-pyrazolo[4,3-c]pyridine-3,6(2H,5H)-dione] was tested. Which “Inhibition (%) of NOX activity” value did it give?
The value was 79%.

Which “Inhibition (%) of NOX activity” value does the source give for `CCCCc1c2c(=O)n(-c3ccc(F)cc3Cl)[nH]c2cc(=O)n1Cc1ccccc1CN1CCOCC1` [Compound 14, 4-butyl-2-(2-chloro-4-fluorophenyl)-5-[2-(morpholin-4-ylmethyl)benzyl]-1H-pyrazolo[4,3-c]pyridine-3,6(2H,5H)-dione] here?
Its value is 86%.

Which “Inhibition (%) of NOX activity” value does the source give for `COCc1c2c(=O)n(-c3cccc(Cl)c3)[nH]c2cc(=O)n1Cc1ccccn1` [Compound 23, 2-(3-chlorophenyl)-4-(methoxymethyl)-5-(pyridin-2-ylmethyl)-1H-pyrazolo[4,3-c]pyridine-3,6(2H,5H)-dione] here?
The value was 89%.

How did the “Inhibition (%) of NOX activity” value turn out when `Cn1[nH]c2cc(=O)n(Cc3ccccn3)c(CCCOc3ccccc3)c2c1=O` [Compound 30, 2-methyl-4-(3-phenoxypropyl)-5-(pyridin-2-ylmethyl)-1H-pyrazolo [4,3-c]pyridine-3,6(2H,5H)-dione] was run?
The value was 92%.

`COCCn1c(CN2CCCC2)c2c(=O)n(Cc3ccccc3)[nH]c2cc1=O` [Compound 31, 2-benzyl-5-(2-methoxyethyl)-4-(pyrrolidin-1-ylmethyl)-1H-pyrazolo [4,3-c]pyridine-3,6(2H,5H)-dione] was tested. Which “Inhibition (%) of NOX activity” value did it give?
The value was 82%.

`CCOCCCn1c(CN2CCCC2)c2c(=O)n(-c3ccc(F)cc3Cl)[nH]c2cc1=O` [Compound 45, 2-(2-chloro-4-fluoro-phenyl)-5-(3-ethoxypropyl)-4-(pyrrolidin-1-ylmethyl)-1H-pyrazolo[4,3-c] pyridine-3,6(2H,5H)-dione] was tested. Which “Inhibition (%) of NOX activity” value did it give?
The value was 86%.

For `CCOCCCn1c(CN2CCCC2)c2c(=O)n(Cc3ccccc3)[nH]c2cc1=O` [Compound 47, 2-benzyl-5-(3-ethoxypropyl)-4-(pyrrolidin-1-ylmethyl)-1H-pyrazolo[4,3-c]pyridine-3,6(2H,5H)-dione], which “Inhibition (%) of NOX activity” value is on record?
Its value is 89%.

With `Cn1[nH]c2cc(=O)n(Cc3ccc(Cl)cc3)c(CN3CCCC3)c2c1=O` [Compound 52, 5-(4-chlorobenzyl)-2-methyl-4-(pyrrolidin-1-ylmethyl)-1H-pyrazolo[4,3-c]pyridine-3,6(2H,5H)-dione] as the compound, how does the “Inhibition (%) of NOX activity” value read?
Its value is 90%.

How did the “Inhibition (%) of NOX activity” value turn out when `CC(=O)Nc1cccc(Cn2c(CN3CCCC3)c3c(=O)n(-c4ccc(OCc5ccccc5)cc4)[nH]c3cc2=O)c1` [Compound 53, N-[3-({2-[4-(benzyloxy)phenyl]-3,6-dioxo-4-(pyrrolidin-1-ylmethyl)-1,2,3,6-tetrahydro-5H-pyrazolo[4,3-c]pyridin-5-yl}methyl)phenyl] acetamide] was run?
The value was 86%.

With `COCCn1c(COc2ccc(F)cc2)c2c(=O)n(-c3ccccc3Cl)[nH]c2cc1=O` [Compound 58, 2-(2-chlorophenyl)-4-[(4-fluorophenoxy)methyl]-5-(2-methoxyethyl)-1H-pyrazolo[4,3-c]pyridine-3,6(2H,5H)-dione] as the compound, how does the “Inhibition (%) of NOX activity” value read?
Its value is 80%.

With `Cn1[nH]c2cc(=O)n(Cc3ccccn3)c(COCc3ccccc3)c2c1=O` [Compound 63, 4-[(benzyloxy)methyl]-2-methyl-5-(pyridin-2-ylmethyl)-1H-pyrazolo [4,3-c]pyridine-3,6 (2H,5H)-dione] as the compound, how does the “Inhibition (%) of NOX activity” value read?
The value was 89%.

For `Cn1[nH]c2cc(=O)n(Cc3cccc(N4CCOCC4)n3)c(COc3ccc(F)cc3)c2c1=O` [Compound 65, 4-[(4-fluorophenoxy)methyl]-2-methyl-5-[(6-morpholin-4-ylpyridin-2-yl)methyl]-1H-pyrazolo[4,3-c] pyridine-3,6(2H,5H)-dione], which “Inhibition (%) of NOX activity” value is on record?
The value was 80%.

For `Cn1c(C2CN(Cc3ccccc3)CCO2)c2c(=O)n(-c3ccccc3Cl)[nH]c2cc1=O` (stereo not drawn) [Compound 84, 4-(4-benzylmorpholin-2-yl)-2-(2-chloro-phenyl)-5-methyl-1H-pyrazolo [4,3-c]pyridine-3,6 (2H,5H)-dione], which “Inhibition (%) of NOX activity” value is on record?
The value was 78%.

How did the “Inhibition (%) of NOX activity” value turn out when `Cn1c(COc2ccc(Cl)cc2)c2c(=O)n(-c3ccccc3Cl)[nH]c2cc1=O` [Compound 92, 4-[(4-chlorophenoxy)methyl]-2-(2-chlorophenyl)-5-methyl-1H-pyrazolo[4,3-c] pyridine-3,6(2H,5H)-dione] was run?
The value was 76%.

How did the “Inhibition (%) of NOX activity” value turn out when `CN(Cc1c2c(=O)n(-c3ccccc3Cl)[nH]c2cc(=O)n1CCc1ccccn1)c1ccccc1` [Compound 93, 2-(2-chlorophenyl)-4-{[methyl(phenyl)amino]methyl}-5-(2-pyri-din-2-ylethyl)-1H-pyrazolo[4,3-c] pyridine-3,6(2H,5H)-dione] was run?
The value was 80%.

`CC(C)(C)OC(=O)N1CCC(Cn2c(COCc3ccccc3)c3c(=O)n(-c4ccccc4Cl)[nH]c3cc2=O)CC1` [Compound 100, tert-butyl 4-({4-[(benzyloxy)methyl]-2-(2-chlorophenyl)-3,6-dioxo-1,2,3,6-tetrahydro-5H-pyrazolo[4,3-c]pyri-din-5-yl}methyl)pipe-ridine-1-carboxylate] was tested. Which “Inhibition (%) of NOX activity” value did it give?
Its value is 78%.

For `CCN(CC)CCCn1c(COCc2ccccc2)c2c(=O)n(-c3ccccc3Cl)[nH]c2cc1=O` [Compound 102, 4-[(benzyloxy)methyl]-2-(2-chlorophenyl)-5-[3-(diethylamino)propyl]-1H-pyrazolo[4,3-c] pyridine-3,6(2H,5H)-dione], which “Inhibition (%) of NOX activity” value is on record?
The value was 80%.

Which “Inhibition (%) of NOX activity” value does the source give for `CN1CCC(Cn2c(COCc3ccccc3)c3c(=O)n(-c4ccccc4Cl)[nH]c3cc2=O)CC1` [Compound 106, 4-[(benzyloxy)methyl]-2-(2-chlorophenyl)-5-[(1-methylpiperidin-4-yl)methyl]-1H-pyrazolo [4,3-c]pyridine-3,6(2H,5H)-dione] here?
The value was 81%.

How did the “Inhibition (%) of NOX activity” value turn out when `Cn1c(COC(c2ccccc2)C(F)(F)F)c2c(=O)n(-c3ccccc3Cl)[nH]c2cc1=O` (stereo not drawn) [Compound 108, 2-(2-chlorophenyl)-5-methyl-4-[(2,2,2-trifluoro-1-phenylethoxy)methyl]-1H-pyrazolo[4,3-c] pyridine-3,6(2H,5H)-dione] was run?
The value was 75%.

`O=c1c2c(COCc3ccccc3)n(Cc3cnccn3)c(=O)cc2[nH]n1-c1ccccc1Cl` [Compound 113, 4-[(benzyloxy)methyl]-2-(2-chlorophenyl)-5-(pyrazin-2-yl-methyl)-1H-pyrazolo[4,3-c]pyridine-3,6(2H,5H)-dione] was tested. Which “Inhibition (%) of NOX activity” value did it give?
The value was 87%.

`CN(C)C(=O)Cn1c(COCc2ccccc2)c2c(=O)n(-c3ccccc3Cl)[nH]c2cc1=O` [Compound 116, 2-{4-[(benzyloxy)methyl]-2-(2-chlorophenyl)-3,6-dioxo-1,2,3,6-tetrahydro-5H-pyrazolo[4,3-c]pyridin-5-yl)-N,N dimethyl acetamide] was tested. Which “Inhibition (%) of NOX activity” value did it give?
Its value is 81%.

With `CN(CCCc1c2c(=O)n(-c3ccccc3Cl)[nH]c2cc(=O)n1C)c1ccccc1` [Compound 120, 2-(2-chlorophenyl)-5-methyl-4-{3-[methyl (phenyl)amino]propyl}-1H-pyrazolo[4,3-c] pyridine-3,6(2H,5H)-dione] as the compound, how does the “Inhibition (%) of NOX activity” value read?
Its value is 77%.

For `Cn1c(CCCN2CCc3ccccc32)c2c(=O)n(-c3ccccc3Cl)[nH]c2cc1=O` [Compound 123, 2-(2-chloro-phenyl)-4-[3-(2,3-dihydro-1H-indol-1-yl)propyl]-5-methyl-1H-pyrazolo[4,3-c] pyridine-3,6(2H,5H)-dione], which “Inhibition (%) of NOX activity” value is on record?
Its value is 90%.

From patent publication US8455485B2, “Pyrazolo pyridine derivatives as NADPH oxidase inhibitors” (Genkyotex SA, priority 2008, dated 2013)
